Experimental findings from paper PMC9501633, “Synthesis, Characterisation and Mechanism of Action of Anticancer 3-Fluoroazetidin-2-ones” (Pharmaceuticals, 2022) are described below.

One test concerns MDA-MB-231 cells. The test can be described thus: AlamarBlue cell viability assay. It is filed as cell-based. The following applies: Homo sapiens, MDA-MB-231, 72 h. Here is the method: The potent 3-fluoro-β-lactam compound 33 synthesised was also evaluated in the triple-negative MDA-MB-231 cell line which lacks expression of the estrogen and progesterone receptors (ER/PR) and the HER2 receptor. […]. Compound 32 was also evaluated in the triple-negative breast cancer cell line Hs578T and its isogenic subclone Hs578T(i)8 (Figure 4C). Hs578Ts(i)8 cells have 2.5-fold more migratory capacity and 3-fold more invasive capacity through the extracellular matrix than the parental cell line (Hs578T) and have 30% more CD44+/CD24-/low cells and in vivo proliferation. […]. […] Cell proliferation for MCF-7 cells was analysed with the AlamarBlue assay (Invitrogen Corp.) as previously described by us. […] Fluorescence results were obtained with a 96-well fluorimeter with excitation at 530 nm and emission at 590 nm with results recorded as percentage viability relative to vehicle control (100%). […]
Figure 4 Antiproliferative activity of 3-fluoro β-lactams on MCF-7, MDA-MB-231, Hs578T and Hs578T isogenic subclone Hs578T(i)8 breast cancer cells and non-tumourigenic HEK-293T cells. […] Cell viability was expressed as a percentage of vehicle control (ethanol 1% (v/v))-treated cells. […] Cell viability was expressed as a percentage of vehicle control (ethanol 1% (v/v))-treated cells and was measured by AlamarBlue assay (average of three independent experiments). […]
For orientation: The colour change of resazurin is a common sign of viable cells or microbes.

The subject of the next test is MCF-7 cells. The test can be described thus: Annexin V-FITC/PI apoptosis assay (flow cytometry). Conditions: 48 h. It is filed as cell-based, human. The protocol: Among the cell death pathways, apoptosis is very important to maintain cellular homeostasis. However, upon severe and irreparable cellular stress, all cells, including cancer cells, undergo apoptosis. In this work, the Annexin V–FITC/PI double-staining method was used in assessing the development of apoptosis when MCF-7 cells are exposed to compound 33 (0.1 and 0.5 μM for 48 h). MCF-7 cells were first treated with compound 33 for 48 h followed by staining with Annexin V–fluorescein isothiocyanate (FITC)/propidium iodide (PI). Live cells (Annexin V^−/PI^−), early apoptotic cells (Annexin V^+/PI^−), late apoptotic cells (Annexin V+/PI+) and necrotic cells (Annexin V^−/PI^+) can be differentiated by tie technique following flow cytometric analysis (Figure 5). The positive control CA-4 (at 50 nM concentration) induced 34.6% Annexin V-positive apoptotic cells, and the vehicle control used was 0.1% ethanol (v/v).
Apoptotic cell death was monitored by flow cytometry using Annexin V and propidium iodide (PI) as previously described by us. MCF-7 cells were seeded in 6-well plates at a density of 1 × 10^5 cells/mL and treated with either vehicle (0.1% (v/v) EtOH) or β-lactam compound 33 at concentrations 0.1 and 0.5 µM for 48 h. Cells were harvested and prepared for flow cytometric analysis. Cells were washed in 1X binding buffer (20X binding buffer: 0.1 M HEPES, pH 7.4; 1.4 M NaCl; 25 mM CaCl2 diluted in dH2O) and incubated in the dark for 30 min on ice in Annexin V-containing binding buffer [1:100]. Cells were then washed in binding buffer and then re-suspended in PI-containing binding buffer (1:1000). Samples were then analysed with the BD Accuri flow cytometer and Prism software. The resulting cell populations were identified as Annexin V- and PI-negative (Q4, healthy cells), Annexin V-positive and PI-negative (Q3, early apoptosis), Annexin V- and PI-positive (Q2, late apoptosis) and Annexin V-negative and PI-positive (Q1, necrosis). The positive control for induction of cell death was […].
Figure 5 Compound 33 induces apoptosis in MCF-7 breast cancer cells. […] .

For orientation: IC50 means the concentration at which inhibition is half-maximal. Lower therefore signals inhibition by little substance.

For the compound `COc1ccc(/C=C\c2cc(OC)c(OC)c(OC)c2)cc1O` [CA-4, combretastatin A-4, reference compound], half-maximal inhibition with MDA-MB-231 cells (IC50) was put at 43 nM. For the same compound, in the test on MCF-7 cells (Homo sapiens, MCF7, MCF-7, 50 nM, read-out: Viable cells), the viability at 0.05 µM was determined as 61.8%. Moreover, the “Annexin V-positive apoptotic cells” value in the test with MCF-7 cells (MCF-7, 50 nM) is 34.6%.

In the case of `COc1ccc(C2C(F)C(=O)N2c2cc(OC)c(OC)c(OC)c2)cc1F` (stereo not drawn) [Compound 33, 3-Fluoro-4-(3-fluoro-4-methoxyphenyl)-1-(3,4,5-trimethoxyphenyl)azetidin-2-one], the IC50 in the test with MDA-MB-231 cells is 620 nM. Moreover, the viability at 0.1 µM in the test with MCF-7 cells (Homo sapiens, MCF7, MCF-7, 0.1 μM, read-out: Viable cells) was found to be 84.9%. For the same compound, the viability at 0.5 µM in the test with MCF-7 cells (Homo sapiens, MCF7, MCF-7, 0.5 μM, read-out: Viable cells) turned out to be 48.8%. In the test on MCF-7 cells (MCF-7, 0.1 μM), the “apoptosis (early + late)” value came to 14.2%, the early apoptotic cells is 8.1% and the late apoptotic cells was 6.1%. Moreover, in the test on MCF-7 cells (MCF-7, 0.5 μM), the “apoptosis (early + late)” value is recorded as 45.9%, the early apoptotic cells was found to be 22.1% and the late apoptotic cells amounted to 23.8%.
